Measurements: US10227362B2 (priority 2015, dated 2019)
≈ marks a conversion by molar mass, not a printed value.

How the values were obtained:
Vero Cell = test: Vero cell cytotoxicity; assay type: cell-based; settings: Chlorocebus sabaeus, Vero cells
[1] = tested on: Mycobacterium bovis BCG strain TMC1019 (ATCC35737); test: microbe, parasite or virus in culture; assay type: cell-based; settings: Mycobacterium tuberculosis variant bovis BCG, 24 h, read-out: M. bovis ATCC35737 (ug/mL)
M. tuberculosis H37R = test: M. tuberculosis LORA MIC; assay type: cell-based; settings: Mycobacterium tuberculosis, read-out: M. tuberculosis H37R LORA (MIC) (ug/mL)
Kinetic solubility test = assay type: physicochemical; settings: buffer, 22 °C, aqueous buffer, kinetic from dmso stock, pH 2.0, room temperature
Method: 1. […] The test compound and the control compound (10 mM DMSO mother liquor, 10 uL per well) were added to a 96-well plate containing 490 uL of buffer per well. After vortexing for 2 minutes, the plates were incubated on the shaker at room temperature (22±2° C.) for 24 hours. The 200 uL sample was then transferred to a MultiScreen filter plate (polycarbonate film), filtered through a millipore vacuum manifold, and the filtrate was collected. The concentration of the compound in the filtrate was determined by HPLC-UV. Three different concentrations of UV standard solution and solubility test samples were injected successively. Each sample was injected 2 times, and the concentration was taken into the standard curve, and the average value was calculated.

P-glycoprotein (MDR1) = test: MDR1-MDCK cell bi-directional permeability; assay type: in vitro ADME; settings: dog; for Papp A→B at 2.5 h, 2 μM: A to B, HBSS pH 7.4, read-out: MDR1-MDCK Monolayer Cell Bi-directional Permeability Parameters A to B; for Papp B→A at 2.5 h, 2 μM: B to A, HBSS pH 7.4, read-out: MDR1-MDCK Monolayer Cell Bi-directional Permeability Parameters B to A; for efflux ratio at 2.5 h, 2 μM: HBSS pH 7.4, read-out: MDR1-MDCK Monolayer Cell Bi-directional Permeability Parameters Efflux Ratio
Excerpt: 2. MDR1-MDCK cell bi-directional permeability evaluation experiment: MDR1-MDCK cells that permanently express human P-glycoprotein (P-glycoprotein) were planted on 96-well Insert cell plates and cultured for 4 to 7 days to form aggregated monolayer cells. The assessment of unidirectional (A→B) permeability of the fenoterol (low permeability marker) and propranolol (high permeability marker) and the bi-directional permeability of Digoxin (a P-glycoprotein substrate) were used to verify the quality of monolayer cells. The three control compounds do two complex wells.
The standard conditions for the transport experiments of the test compound were as follows: • Test concentration: 2 μM (DMSO≤1%); • Repetition: n=3; • Direction: bidirectional transport consisting of two directions: A→B and B→A; • Incubation time: single time point, 2.5 hours; • Transport buffer: HB SS, pH 7.4; • Incubation conditions: 37° C., 5% CO2, 95% relative humidity.
After the incubation, the sample solutions taken from the donor wells and the receive wells were immediately mixed with a cold acetonitrile solution containing the internal standard. And the amount of accumulation of intracellular compounds was measured by lysing the cells with a cold acetonitrile solution containing the internal standard. The concentrations of the test compound in all samples (including the initial administration solution, the supernatant of donor wells, the receiver solution, the cell lysate) were analyzed by the LC/MS/MS method. The concentration of the test compound was expressed by the ratio of its peak area to the internal standard peak area.

[2] = tested on: Mycobacterium tuberculosis H37Rv strain; test: In vitro MIC against M. tuberculosis H37Rv strain (MABA, Alamar Blue); assay type: cell-based
Method: Part I: The in vitro efficacy of anti-Mycobacterium tuberculosis compounds was tested using H37Rv strain.
On the day of the test, the compound was dissolved in pure DMSO (Sigma 276855-2L) to a concentration of 10 mg/mL which was used as the mother liquor of the compound. 30 μL of DMSO was added to wells of column 2 to 11 s of the v-bottom 96-well plates (Axygen-wipp02280). 30 μL of the mother liquor of the compound was added to the well of column 2, after mixing, 30 μL was taken from the well of column 2 and added to the well of column 3, and then pipetted and mixed. The operation was taken to column 10. Column 11 was free of medicine and contained only 30 μL of DMSO. This was the “motherplate” of the compound. From column 2 to 11, the corresponding concentration of the compound was 5, 2.5, 1.25, 0.625, 0.3125, 0.156, 0.078, 0.039, 0.02, 0 mg/mL. […] A flat bottom 96-well plate (Greiner 655090) was used as a “daughterplate”. 98 μL of 7H9 (Sigma M0178) medium was added to the wells of all daughterplates. 2 μL of compound was extracted from the motherboard and added to the corresponding daughter plate. Line A and H, column 1 and 12 of the daughterplate contained only 7H9 medium.
The H37Rv strain in the glycerol cryovial was inoculated into 7H9 medium containing 0.05% Tween 80 and cultured for 4 weeks at 37° C. in a shaker with 200 rpm. The bacterial liquid was washed twice with 7H9 medium containing 0.05% Tween 80 and resuspended in the same medium. The absorbance of the bacteria liquid was adjusted to OD550=0.4-0.5 using the same medium. The bacteria liquid was sub-packed in microcentrifuge tubes and stored at −80° C. Storage time was no more than 1 month. On the day of the test, the packaged bacteria liquid would be […]. The bacteria liquid was diluted 20 times and then diluted 50 times with 7H9 medium, and a total of 1000 times dilution. The bacteria liquid would be used to inoculate on the daughterplate. 100 μL of bacterial liquid was inoculated in each well of the daughterboard, 100 μL 7H9 medium was added to column 12 and without bacteria liquid.
The test daughterplate was placed in an incubator at 37° C. and the humidity was maintained at >80%. A week later, 12.5 μL of 7H9 medium containing 20% Tween 80 and 20 μL of Alamar Blue (Invitrogen DAL1100) were added to the well of a column 1 containing bacteria and the well of a column 12 without bacteria every day, and then continue to incubate for 24 hours and observed. When the added Alamar Blue was reduced to pink in 24 hours by the bacteria liquid in the well of column 1, the 7H9 medium containing 20% Tween 80 and Alamar Blue were added to all wells on the test plate and the fluorescence values were measured after incubation for 24 hours at 37° C.

[3] = Pharmacokinetics in vivo in mice; settings: CD-1 male mice
Method: The pharmacokinetic characteristics of rodents after intravenous and oral administration of the compound were tested in a standard protocol. Specifically, the candidate compounds of the experiment were injected intravenously and administered orally for 7 to 10 weeks old CD-1 male mice. The oral preparation was a 0.5% suspension of methylcellulose, and the intravenous preparation was a clear solution of ethanol/DMSO/polyethylene glycol 400/pure water (10:10:50:30). Plasma and lung samples were collected and analyzed by the LC-MS/MS method and the pharmacokinetic parameters were calculated.

SMILES | IC50 (Vero Cell) [µg/mL] | MIC [1] [µg/mL] | MIC (M. tuberculosis H37R) [µg/mL] | solubility kinetic at 24 h (Kinetic solubility test) [µM] | Papp A→B at 2.5 h, 2 μM (P-glycoprotein (MDR1)) [×10⁻⁶ cm/s] | Papp B→A at 2.5 h, 2 μM (P-glycoprotein (MDR1)) [×10⁻⁶ cm/s] | efflux ratio at 2.5 h, 2 μM (P-glycoprotein (MDR1)) | MIC [2] [µg/mL] | Pulmonary Drug Concentration (nM/Kg) PO 1 (h) ([3]; lung, 1 h after administration) [nM/kg] | drug concentration in lung relative to the reference compound (OPC-67683) ([3]; oral, 1 hour after administration) | Cmax ([3]; mouse, oral, plasma) [nM]
C[C@]1(CN2Cc3nc(-c4ccc(F)cc4)sc3C2)Cn2cc([N+](=O)[O-])nc2O1 [Compound 69, (S)-2-((2-(4-Fluorophenyl)-4H-pyrrolo[3,4-d]thiazol-5(6H)-yl)methyl)-2-methyl-6-nitro-2,3-dihydroimidazo[2,1-b]oxazole] | > 32 | < 1 | 1 to 32 (≈ 2.49 to 79.7 µM) | 39.3 (≈ 15.8 µg/mL) | 20.9 | 15.8 | 0.76 | < 1 |  |  | 
CC1(CN2CCc3nc(-c4ccccc4)ccc3C2)Cn2cc([N+](=O)[O-])nc2O1 (single isomer, unassigned) [Compound 1B, 2-methyl-6-nitro-2-((2-phenyl-7,8-dihydro-1,6-naphthyridin-6(5H)-yl)methyl)-2,3-dihydroimidazo[2,1-b]oxazole] | > 32 | < 1 | 1 to 32 (≈ 2.55 to 81.8 µM) | 130 (≈ 50.7 µg/mL) | 16.8 | 22.7 | 1.35 | < 1 |  |  | 
C[C@]1(CN2Cc3nc(-c4ccc(F)cc4)oc3C2)Cn2cc([N+](=O)[O-])nc2O1 [Compound 89, (S)-2-(4-Fluorophenyl)-5-((2-methyl-6-nitro-2,3-dihydroimidazo[2,1-b]oxazol-2-yl)methyl)-5,6-dihydro-4H-pyrrolo[3,4-d]oxazole] | > 32 | < 1 |  | 100 (≈ 38.7 µg/mL) | 25.9 | 18.5 | 0.71 | < 1 |  |  | 
C[C@]1(CN2CCc3nc(-c4ccc(F)cc4)ccc3C2)Cn2cc([N+](=O)[O-])nc2O1 [Compound 7, (S)-2-((2-(4-Fluorophenyl)-7,8-dihydro-1,6-naphthyridin-6(5H)-yl)methyl)-2-methyl-6-nitro-2,3-dihydroimidazo[2,1-b]oxazole] | > 32 | < 1 | 1 to 32 (≈ 2.44 to 78.2 µM) | 143 (≈ 58.7 µg/mL) | 17.7 | 19.3 | 1.09 | < 1 | 16147 | more than 9 times | 6720
